These results are taken from US3939277A, “Insecticidal biodegradable analogues of DDT” (priority 1973, dated 1976).

Each structure is given as a SMILES string. Values after ≈ are worked out from the molar mass of the structure shown.

Data set [1] relates to multifunction oxidase (MFO) enzymes. The following applies: background statement; cited from earlier work.
For data set [2], the system named is larvae of the mosquito Culex pipiens quinquefasciatus. Put plainly: Toxicity to mosquito larvae as described by WHO (VBC/1968), Culex pipiens quinquefasciatus. The class given is in vivo.
The conditions of data set [3]: background statement; cited from earlier work.
The test system of data set [4] is female house flies, Musca domestica, susceptible (SNAIDM). In words: Topical application to female house flies, susceptible (SNAIDM) strain. The following applies: read-out: topical LD50 female housefly, Susceptible. The protocol:
(§1) Compositions of the present invention were tested for insecticidal activities determined by standard methods, and compared with the activities of DDT and other symmetrical analogues of DDT, e.g. methoxychlor. In these tests, female house flies, Musca domestica, under CO2 anesthesia, were treated with topical application of 1 ul drops of w/v solutions of the insecticides in acetone. Three replicates of 20 flies 2-4 days old were treated on the pronotum at each dosage, and at least 5 dosages were used to establish each dosage versus mortality curve. Mortalities were determined by holding the flies at 72° F. (22° C.) with 40% sucrose solution as food. Topical applications were made to both susceptible (SNAIDM) and DDT-resistant (Rsp) strains in exactly the same manner. The results of these evaluations are reported in Table II as LD50 values in ug. of toxicant per gram of insect using the average weight of the house fly as 20 mg. Evaluations of the toxicity of the same compositions to the larvae of the mosquitoes Culex pipiens quinquefasciatus and Anopheles albimanus were made as described by WHO (VBC/1968) and the results are also shown in Table II.

Data set [5] relates to larvae of the mosquito Anopheles albimanus. In words: Toxicity to mosquito larvae as described by WHO (VBC/1968), Anopheles albimanus. The class given is in vivo.
For data set [6], the system named is female house flies, Musca domestica, DDT-resistant (Rsp). Put plainly: Topical application to female house flies, DDT-resistant (Rsp) strain. The following applies: read-out: topical LD50 female housefly, DDT-resistant. As for the experimental part: as §1
Another data set has as its system insects. Conditions: background statement, cited from earlier work; for insecticidal activity (in words): compared with DDT towards other species of insects; for insecticidal activity (in words), general: toward certain species of insects.

For `Clc1ccc(C(c2ccc(Cl)cc2)C(Cl)Cl)cc1` [DDD, 1,1-dichloro 2,2-bis-(p-chlorophenyl) ethane], the “susceptibility to attack / detoxication by MFO enzymes” value in data set [1] is recorded as “highly resistant to detoxication by MFO enzymes”.

Turning to `ClC(Cl)=C(c1ccc(Cl)cc1)c1ccc(Cl)cc1` [DDE, 1,1-dichloro-2,2-bis-(p-chloro-phyenyl)ethylene], in data set [1], the “susceptibility to attack / detoxication by MFO enzymes” value is given as “highly resistant to detoxication by MFO enzymes”.

Broadly, the LC50 is the concentration lethal to half of the exposed cells or organisms. Read a high LC50 as a less lethal substance. As usually defined, the LD50 is the dose expected to kill half of the subjects tested. With `Clc1ccc(C(c2ccc(Cl)cc2)C(Cl)(Cl)Cl)cc1` [DDT, 1,1,1-trichloro-2,2-bis(p-chlorophenyl)ethane, reference compound], the values for the LC50 in data set [2] and in data set [5] were 0.07 µg/mL (≈ 0.197 µM) and 0.016 µg/mL (≈ 0.0451 µM), respectively. Moreover, the lipid solubility entry in data set [3] is on record as “high lipid solubility”. In addition, the water solubility entry in data set [3] is recorded as “very low water solubility”. Besides, in data set [1], the “susceptibility to attack / detoxication by MFO enzymes” value is “highly resistant to detoxication by MFO enzymes”. Moreover, the LD50 in data set [4] stood at 14 mg/kg; in data set [6], 170 mg/kg.

On to `COc1ccc(C(c2ccc(SC)cc2)C(Cl)(Cl)Cl)cc1` (stereo not drawn) [Example I, 2-(p-methoxyphenyl)-2-(p-methylthiophenyl)-1,1,1-trichloroethane], for which the LC50 in data set [2] is 0.11 µg/mL (≈ 0.304 µM); in data set [5], 0.044 µg/mL (≈ 0.122 µM). For the same compound, the LD50 is 23.5 mg/kg in data set [4] and 80 mg/kg in data set [6].

Consider `COc1ccc(C(c2ccc(C)cc2)C(Cl)(Cl)Cl)cc1` (stereo not drawn) [Example III], for which the 50% lethal concentration (LC50) in data set [2] came out at 0.085 µg/mL (≈ 0.258 µM); in data set [5], 0.12 µg/mL (≈ 0.364 µM). The LD50 in data set [4] turned out to be 23.5 mg/kg; in data set [6], 62.5 mg/kg.

In the case of `CCOc1ccc(C(c2ccc(SC)cc2)C(Cl)(Cl)Cl)cc1` (stereo not drawn) [Example II], the values for the LC50 in data set [2] and in data set [5] were 0.07 µg/mL (≈ 0.186 µM) and 0.054 µg/mL (≈ 0.144 µM), respectively. Moreover, the LD50 in data set [4] was 32 mg/kg; in data set [6], 85 mg/kg.

On to `CCOc1ccc(C(c2ccc(C)cc2)C(Cl)(Cl)Cl)cc1` (stereo not drawn) [Example IV], for which the values for the 50% lethal concentration (LC50) in data set [2] and in data set [5] were 0.13 µg/mL (≈ 0.378 µM) and 0.11 µg/mL (≈ 0.32 µM), respectively. In addition, the LD50 in data set [4] is 9 mg/kg; in data set [6] it was 27 mg/kg.

For `CCc1ccc(C(c2ccc(C)cc2)C(Cl)(Cl)Cl)cc1` (stereo not drawn) [Example VI], the LC50 in data set [2] amounted to 0.08 µg/mL (≈ 0.244 µM); in data set [5] it was 0.23 µg/mL (≈ 0.702 µM). Moreover, the LD50 in data set [4] was 11 mg/kg; in data set [6] it was 28 mg/kg.

For the compound `CCCOc1ccc(C(c2ccc(C)cc2)C(Cl)(Cl)Cl)cc1` (stereo not drawn) [Example V], the figures for the LC50 in data set [2] and in data set [5] were 0.04 µg/mL (≈ 0.112 µM) and 0.2 µg/mL (≈ 0.559 µM), respectively. Further, the 50% lethal dose (LD50) worked out at 20 mg/kg in data set [4] and 55 mg/kg in data set [6].

In the case of `COc1ccc(C(c2ccc(OC)cc2)C(Cl)(Cl)Cl)cc1` [Methoxychlor, 1,1,1-trichloro-2,2-bis-(pmethoxyphenyl)ethane, reference compound], the LC50 in data set [2] was 0.067 µg/mL (≈ 0.194 µM); in data set [5], 0.18 µg/mL (≈ 0.521 µM). Also, in the data set on insects, the “insecticidal activity (in words)” value was “considerably less insecticidal activity than DDT towards other species of insects”. Also, in the data set on insects, the “insecticidal activity (in words), general” value was “satisfactory insecticidal activity toward certain species of insects”. Moreover, the “susceptibility to attack / detoxication by MFO enzymes” value in data set [1] was “readily attacked by MFO enzymes”. For the same compound, the LD50 in data set [4] was 45 mg/kg; in data set [6], 48 mg/kg.

For `CSc1ccc(C(c2ccc(SC)cc2)C(Cl)(Cl)Cl)cc1` [methiochlor, 1,1,1-trichloro-2,2-bis-(pmethiophenyl)ethane], in the data set on insects, the “insecticidal activity (in words)” value is “considerably less insecticidal activity than DDT towards other species of insects” and the “insecticidal activity (in words), general” value is given as “satisfactory insecticidal activity toward certain species of insects”. Further, the “susceptibility to attack / detoxication by MFO enzymes” value in data set [1] is recorded as “readily attacked by MFO enzymes”.

Consider `Cc1ccc(C(c2ccc(C)cc2)C(Cl)(Cl)Cl)cc1` [methylchor, 1,1,1-trichloro-2,2-bis (p methylphenyl)ethane], for which, in the data set on insects, the “insecticidal activity (in words)” value is recorded as “considerably less insecticidal activity than DDT towards other species of insects” and the “insecticidal activity (in words), general” value is reported as “satisfactory insecticidal activity toward certain species of insects”.
